The source made the active and inactive calls. No cut-off for these calls is given here.
Tests used:
Plasmodium falciparum [1] = experiment: Inhibition of Plasmodium falciparum recombinant falcipain-2 at 10 uM by microtiter plate spectrofluorimetry
[2] = Inhibition of Plasmodium falciparum recombinant falcipain-2 by microtiter plate spectrofluorimetry
Plasmodium falciparum [3] = experiment: Inhibition of Plasmodium falciparum recombinant falcipain-2 at 10 uM after dialysis in refolding buffer for 8 hrs by SDS-PAGE
Plasmodium falciparum [4] = experiment: Binding affinity to Plasmodium falciparum recombinant falcipain-2 by isothermal titration calorimetry
Plasmodium falciparum [5] = experiment: Induction of Plasmodium falciparum recombinant falcipain-2 aggregation by FPLC gel filtration chromatography
Plasmodium falciparum [6] = experiment: Induction of Plasmodium falciparum recombinant falcipain-2 aggregation by pseudonative gel analysis

| inhibition (Plasmodium falciparum [1]) [%] | Activity (Plasmodium falciparum [3]) | Activity (Plasmodium falciparum [4]) | Activity (Plasmodium falciparum [5]) | Activity (Plasmodium falciparum [6]) | Compound | IC50 [2] [µM] |
| --- | --- | --- | --- | --- | --- | --- |
| 71.4 |  |  |  |  | CC(Sc1nc(-c2ccccc2O)n[nH]1)C(=O)Nc1cccc(Cl)c1 (centres undefined) | 5.8 |
| 44 |  |  |  |  | Nc1nnc(SCC(=O)Nc2ccc3nc(SCc4cccc5ccccc45)sc3c2)s1 | 15 |
| 36.9 |  |  |  |  | O=C(COC(=O)c1ccc(S(=O)(=O)c2cccc(S(=O)(=O)N3CCOCC3)c2)cc1)c1ccccc1 | 20 |
| 97.4 | Active | Active |  |  | CC(C)C[C@H](NC(=O)[C@H]1O[C@@H]1C(=O)O)C(=O)NCCCCN=C(N)N [E-64] | 0.017 |
| 56.5 |  |  |  |  | Cc1c(Cl)cccc1-c1ccc(/C=N\Nc2nncn2/N=C/c2ccc(-c3cccc(Cl)c3C)o2)o1 | 6.4 |
| 20.2 |  |  |  |  | O=C(Cc1nnc(NC(=O)c2ccc(Br)cc2)s1)NNC(=O)c1ccc(Br)cc1 | > 50 |
| 21.9 |  |  |  |  | CC(=O)c1ccc(NC(=O)CSc2nnc(COc3cccc4cccnc34)n2-c2ccccc2)cc1 | > 50 |
| 28.9 |  |  |  |  | O=C(Cn1nnc(-c2ccccc2)n1)N/N=C/c1ccccc1OCc1ccc(Cl)cc1Cl | 20 |
| 20.2 |  |  |  |  | COc1cccc(OCC(=O)NC(=S)Nc2cccc(-c3nc4ncccc4o3)c2C)c1 | > 50 |
| 21.3 |  |  |  |  | Cc1cccc(OCC(=O)Nc2nc(-c3ccc(S(=O)(=O)N4CCOCC4)cc3)cs2)c1 | > 50 |
| 25.9 |  |  |  |  | CCn1c(CNC(=O)Cc2ccc(OC)cc2)nnc1SCC(=O)Nc1ccc(Cl)c(Cl)c1 | 20 |
| 23.4 |  |  |  |  | CC(=O)c1ccc(NC(=O)CSc2nnc(COc3ccc4ccccc4c3)n2-c2ccccc2)cc1 | > 50 |
| 41.4 |  |  |  |  | O=C(CN1C(=O)S/C(=C/c2ccc(-c3ccc(Cl)c(C(=O)O)c3)o2)C1=O)Nc1ccc2c(c1)OCO2 | 10.9 |
| 20.3 |  |  |  |  | O=C(CCc1ccc(S(=O)(=O)NCCc2ccccc2)cc1)Nc1ccc2c(c1)OCCO2 | 54.2 |
| 38.3 |  |  |  |  | CCOC(=O)c1ccc(NC(=O)CSc2nnc(-c3ccccc3Br)n2CC)cc1 | 17.1 |
| 26.9 |  |  |  |  | COc1cc(NS(=O)(=O)c2ccc(NC(=O)c3cc(-c4cccc(C)c4)nc4ccccc34)cc2)ncn1 | 20 |
| 21.9 |  |  |  |  | CCc1ccc(OCc2nnc(SCC(=O)Nc3ccc4ccccc4c3)o2)cc1 | > 50 |
| 21.8 |  |  |  |  | COc1cccc(/C=N/NC(=O)c2ccn(Cc3ccc(Cl)cc3Cl)n2)c1O | > 50 |
| 36.6 |  |  |  |  | CCOC(=O)c1c(-c2ccc(-c3ccccc3)cc2)csc1NC(=O)CSc1nnc2sc3ccccc3n12 | 15 |
| 48.5 |  |  |  |  | O=C(COc1ccc2ccccc2c1)NCC(=O)N/N=C/c1ccc(-c2ccc(Cl)c(Cl)c2)o1 | 13.2 |
| 53.1 | inactive | inactive | inactive | inactive | C=CCn1c(SCC(=O)Nc2sc3c(c2C(N)=O)CCC3)nc2scc(-c3ccccc3)c2c1=O | 2.4 |
| 27.9 |  |  |  |  | CC(=O)c1ccc(-c2ccc(/C=N/Nc3nc(N4CCCCC4)nc(N4CCCCC4)n3)o2)cc1 | 20 |
| 25.1 |  |  |  |  | CC(NC(=O)COc1ccc2ccccc2c1)C(=O)N/N=C/c1cccc(Cl)c1Cl (centres undefined) | > 50 |
| 25.2 |  |  |  |  | O=C(COc1cccc(Cl)c1)Nc1nc(-c2ccc(S(=O)(=O)N3CCOCC3)cc2)cs1 | 20 |
| 20.8 |  |  |  |  | COc1ccc(C(=O)NNC(=O)CSc2nnc(COc3ccc4ccccc4c3)n2C)cc1 | > 50 |
| 29 |  |  |  |  | Cc1ccc(NC(=O)CN2C(=O)S/C(=C/c3ccc(-c4ccc(Cl)c(C(=O)O)c4)o3)C2=O)cc1 | 20 |
| 28.2 |  |  |  |  | O=C(CSc1nnc(SCC(=O)Nc2ccc(Cl)cc2)s1)Nc1ccc(Cl)cc1 | 20 |
| 20.2 |  |  |  |  | Cc1cc(C)nc(NS(=O)(=O)c2ccc(NC(=S)NC(=O)c3cccnc3)cc2)n1 | > 50 |

| Compound | inhibition (Plasmodium falciparum [1]) [%] | Activity (Plasmodium falciparum [3]) | Activity (Plasmodium falciparum [4]) | Activity (Plasmodium falciparum [5]) | Activity (Plasmodium falciparum [6]) | IC50 [2] [µM] |
| --- | --- | --- | --- | --- | --- | --- |
| O=C(NC(Cc1c[nH]c2ccccc12)C(=O)NCc1ccccc1)Oc1ccccc1 (centres undefined) | 29.4 |  |  |  |  | 29.7 |

— ChEMBL document CHEMBL1158475, “Identification of novel falcipain-2 inhibitors as potential antimalarial agents through structure-based virtual screening” (J Med Chem, 2009)
